# Results from patent publication US7737256B2, “Antibody against uPA/uPAR” (Fondazione Centro San Raffaele Del Monte Tabor, priority 2001, dated 2010).
# pIC50: −log10 of the molar value.
# Experiments:
# THP-1 cells = assay: chemotaxis of THP-1 cells (modified Boyden chambers); assay type: cell-based, human
# Experimental: (§1) Chemotaxis assays were performed as described (Degryse, 1999) with modified Boyden chambers using filters (5 μm pore size, Corning) treated with collagen I (100 μg/ml) and fibronectin (10 μg/ml, Boehringer Mannheim). 20,000-40,000 cells in serum-free DMEM were added to the upper well while the chemoattractants were added to the lower well. When present, antibodies or desensitizing molecules were pre-incubated with the cells for one hour and were then added to both wells of Boyden chambers during the chemotaxis assay. Migration lasted for […] in the case of THP-1 cells and 4-6 hours for the HEK293 or HEK293/FPRL1 cells. After migration at 37° C., cells remaining on the upper surface of filters were scraped off, the filters were fixed in methanol and stained in a solution of 10% (w/v) crystal violet in 20% (v/v) methanol. The experiments were performed in triplicate and the results presented represent the mean ±SD of the number of cells counted in ten high power fields per filter and are representative of at least three experiments. Random cell migration, i. e. migration in the absence of chemoattractant, was given the arbitrary value of 100%.
# HIV-1 in U1 cells = assay: PMA-induced HIV-1 reactivation in U1 cells (RT activity); assay type: cell-based
# Experimental: Cell Lines p U1 cells were stimulated at the density of 2×10^5 cells per ml in RPMI 1640 (Whittaker M. A. Bioproducts, Walkerville, Md.) containing 10% FCS. Cells were preincubated with uPA, uPAR, suPA, R2, R3, R4, R5 antibodies for 20 min at 37° C. prior to addition of stimuli. U1 parental cell line U937 was used as a control in the transfection experiments. U937 cells were purchased from ATCC and maintained in RPMI 1640 medium in the presence of FCS before and after infection with the X4 HIV-1LAI/IIIB. For infection, cells were seeded at 2×10^5 cells/ml in 96-well flat bottomed plates (Falcon, Becton-Dickinson Labware, Lincoln Park, N.J.) and infected with 1−2×10^7 virus particles diluted from a stock of pelleted virus (Advanced Biotechnology, Inc., Columbia, Md.). After infection, 2 h at 37° C., cells were washed and resuspended in RPMI 1640 medium.
# Viral expression was monitored by determination of Mg^2+-dependent Reverse Trascriptase (RT) activity in culture supernatants (Poli, 1990). In particular, 5 microliters of supernatants was added to 25 microliters of a mixture containing poly(A), oligo(dT) (Pharmacia Fine Chemicals, Piscataway, N.J.), MgC12, and 32P-labeled deoxythymidine 5′-triphosphate (dTTP) (Amersham Corp., Arlington Heights, Ill.), and incubated for 2 h at 37°°C. 6 microliters of the mixture was spotted onto DE81 paper, air dried, washed five times in 2× SSC buffer, and two additional times in 95% ethanol. The paper was then dried and counted on a scintillation counter (LS 5000, Beckman Instruments, Inc., Fullerton, Calif.).
# For all experiments, culture supernatants were collected every day for five days, in the case of cell line, or every three days for infection of U937 and primary cells. Reagents were replenished every time culture medium was changed. Data representative of one out of three independent experiments are shown. Results are presented as means of triplicate cultures, and the error bar show the standard deviation from the mean.
# HEK293 cells = assay: chemotaxis of HEK293 cells; assay type: cell-based, human; conditions: untransfected HEK293, FIG. 10
# Experimental: (§2) The THP-1 cells used in the present example have been previously described (Resnati, 1996). Human HEK293 cells were kindly donated by Dr. Hal Chapman and human HEK293/FPRL1 from Dr. J. M. Wang. […] HEK293/FPRL1 cells have been generated by transfection of FPRL1 cDNA in HEK293 cells (Murphy, 1996).
# as §1, with “Random cell migration, i. e. migration in the absence of chemoattractant, was given the arbitrary value of 100%.” left out
# [1] = chemotaxis-promotion by uPAR peptides (data not shown); assay type: cell-based
# [2] = target: FPRL1/LXA4R, seven trans-membrane G-protein-coupled receptor (human) (UniProt P25090); assay: cell-based or functional assay
# UniProt P25090, sequence (P25090 whole entry): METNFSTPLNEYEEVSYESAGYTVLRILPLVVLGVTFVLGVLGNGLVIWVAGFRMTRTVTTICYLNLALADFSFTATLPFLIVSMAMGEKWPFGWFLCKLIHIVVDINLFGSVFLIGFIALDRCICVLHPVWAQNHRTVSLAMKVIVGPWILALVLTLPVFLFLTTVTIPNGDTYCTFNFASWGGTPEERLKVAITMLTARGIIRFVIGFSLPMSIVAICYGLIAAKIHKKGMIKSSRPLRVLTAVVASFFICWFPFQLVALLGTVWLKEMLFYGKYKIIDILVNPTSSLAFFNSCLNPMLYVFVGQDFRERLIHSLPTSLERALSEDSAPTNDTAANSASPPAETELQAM
# HEK293/FPRL1 cells = assay: chemotaxis of HEK293 transfected with FPRL1/LXA4R; assay type: cell-based, human; conditions: FIG. 10
# Experimental: as §2
# as §1, with “Random cell migration, i. e. migration in the absence of chemoattractant, was given the arbitrary value of 100%.” left out
# [3] = tested on: Human peripheral blood monocytes; assay: chemotaxis of peripheral blood monocytes; assay type: cell-based; conditions: fresh human monocytes, FIG. 13
# Experimental: as §1
# THP-1 cells have been described before (Resnati, 1996). […] The purity of the separated populations was determined by flow cytometry analyses with anti-CD14 monoclonal antibodies.
compound,measurement,setting,value
"CSCC[C@H](NC=O)C(=O)N[C@@H](CC(C)C)C(=O)N[C@@H](Cc1ccccc1)C(=O)O [fMLP, formyl-methionyl-leucyl-phenylalanine]",de-sensitization against D2D388-279 and ATF,THP-1 cells; 20 μM,de-sensitized
same,effect on MCP-1 chemotaxis (de-sensitization),"THP-1 cells; THP-1 cells, FIG. 9B",did not affect
same,pIC50,"THP-1 cells; THP-1 cells, FIG. 9B, read-out: concentration inhibiting D2D388-279 chemotaxis by 50% (de-sensitization)",4.70 to 5.00
same,effect on MCP-1 chemotaxis (de-sensitization),"THP-1 cells; THP-1 cells, very high concentrations (200 μM)",marginally
ATF: amino terminal fragment of uPA with full receptor-binding and no enzymatic activity,effect on PMA-induced HIV-1 expression,"HIV-1 in U1 cells; PMA 10 nM, FIG. 2",fully reproduces the pro-uPA effect
same,induction of chemotaxis,THP-1 cells; THP-1 cells,induce chemotaxis
same,chemotactic response of the cells,HEK293 cells,do not respond
AVTYSRSRYLEC (listed as Homo sapiens),chemotaxis-promotion,[1],active
same,chemotaxis-promotion after cleavage with plasmin,"[1]; peptide cleaved with plasmin, data not shown",destroyed the activity
"D2D388-278, D2D3 fragment obtained by cleavage of suPAR with chymotrypsin (from UniProt Q03405 110-300) (receptor)",chemotaxis of HEK293 cells transfected with FPRL1/LXA4R,[2],0.1 nM
"D2D388-279: chymotrypsin-cleaved, soluble, purified form of uPAR endowed with potent chemotactic activity",chemotactic response of the cells,HEK293 cells,do not respond
same,chemotactic response of the cells,HEK293/FPRL1 cells,respond well
same,concentration of maximum chemotactic response,HEK293/FPRL1 cells,about 0.1 nM
same,induction of chemotaxis,[3],induce chemotaxis
MCP-1: monocytes chemotactic protein-1 [reference compound],induction of chemotaxis,THP-1 cells; THP-1 cells,induce chemotaxis
same,induction of chemotaxis,[3],induce chemotaxis
SRSRY (listed as Homo sapiens),chemotaxis-promotion,[1],active
TGF-β [reference compound],inhibition of PMA-induced HIV-1 replication/expression,"HIV-1 in U1 cells; pro-uPA 10 nM, TGF-beta 5 ng/ml, alone or combined, FIG. 4C",60%
suPAR: recombinant soluble uPAR which specifically binds pro-uPA,effect on the inhibition of PMA-induced HIV-1 expression by pro-uPA,"HIV-1 in U1 cells; with pro-uPA, FIG. 2D, FIG. 3",blocked
